Reference: patent US20080167347A1, “Ctgf Expression Inhibitor” (SHIONGI & CO., LTD., priority 2005, published 2008)

System: human CTGF promoter region containing TGF-β responsive element
Assay: Luciferase assay of CTGF promoter activity in Ms0-2-3 cells stimulated with TGF-β
Assay type: cell-based
Conditions: Mesangial cell; Ms0-2-3 rat mesangial cells, TGF-β 2 ng/ml stimulation, luciferase activity after 24 hours; read-out: IC50 (inhibitory rate against CTGF promoter activity)
Description: Several kidneys of 6 to 8-week-old male Wistar rats were perfused with sterilized phosphate buffered saline (PBS) and excised. Glomeruli were isolated from the cortex by a sieving method (with 180, 125 or 63 μm mesh). Isolated glomeruli were cultured in RPMI1640 medium containing 20% bovine serum, 1% penicillin-streptomycin and 1% Hepes buffer at 37° C. under 5% carbon dioxide (CO2) atmosphere. After 3 weeks, the medium was changed to the new one. After 4 weeks, mesangial cells which proliferated and became confluent were diluted 2 to 5 times and subcultured. Subcultures were repeated over 20 times, and mesangial cells cultured in usual RPMI1640 medium containing 10% bovine serum, 1% penicillin-streptomycin and 1% Hepes buffer were cloned by a limiting dilution method to establish cell line Ms0-2. […]
Luciferase assay was performed with Ms0-2-3 cells which were cultured with serum-free medium for 48 hours. […] Substrate was added thereto and luciferase activity of each well was measured by luminometer. Enhancement of luciferase activity by TGF-β stimulation (without a compound) was determined as 100% and the inhibitory rate of activity by addition of the compound was calculated. The value obtained from the inhibitory curve was judged as the inhibitory rate against CTGF promoter activity and determined as IC50 value. […]

IC50: 102 nM
SMILES: O=C(Nc1cccc(C(F)(F)F)c1)c1cc(-c2ccc(OC(F)(F)F)cc2)ccc1O [Compound 43]
